Results from ChEMBL document CHEMBL2380304, “Synthesis of 2-methoxybenzoylhydrazone and evaluation of their antileishmanial activity” (Bioorg Med Chem Lett, 2013).

The compounds below were run on Leishmania major (assay: Antileishmanial activity against promastigotes of Leishmania major after 72 hrs by Neubauer counting chamber-based microscopic analysis).
Type: functional, organism-based

IC50 [µM] | SMILES
68.5 | COc1ccccc1C(=O)N/N=C/c1ccc(Cl)cc1
13.2 | COc1ccc(/C=N/NC(=O)c2ccccc2OC)c(O)c1
31.5 | COc1ccccc1C(=O)N/N=C/c1cc(O)c(O)c(O)c1
75.9 | COc1ccccc1C(=O)N/N=C/c1ccncc1
40.1 | COc1ccc(/C=N/NC(=O)c2ccccc2OC)cc1
60 | COc1ccccc1C(=O)N/N=C/c1ccccn1
88.6 | COc1ccccc1C(=O)N/N=C/c1ccc(O)cc1O
77.4 | COc1ccccc1C(=O)N/N=C/c1ccc(Br)c(F)c1
31.6 | COc1ccccc1C(=O)N/N=C/c1ccc([N+](=O)[O-])cc1
15.7 | COC(=O)c1ccc(/C=N/NC(=O)c2ccccc2OC)cc1
63.4 | COc1ccccc1C(=O)N/N=C/c1ccc(OC)c(O)c1I
53.1 | COc1cc(/C=N/NC(=O)c2ccccc2OC)cc(OC)c1
68 | COc1ccccc1C(=O)N/N=C/c1cccc(O)c1O
5.09 | N=C(N)c1ccc(OCCCCCOc2ccc(C(=N)N)cc2)cc1 [PENTAMIDINE]
34.9 | COc1ccccc1C(=O)N/N=C/c1cc(O)ccc1O
3.29 | COc1ccccc1C(=O)N/N=C/c1ccc(O)c(O)c1
57.4 | COc1ccccc1C(=O)N/N=C/c1ccc(O)cc1
13.2 | COc1ccc(/C=N/NC(=O)c2ccccc2OC)cc1OC
2.49 | COc1ccccc1C(=O)N/N=C/c1cccs1
1.95 | COc1ccccc1C(=O)N/N=C/c1cccnc1
7.64 | COc1ccc(/C=N/NC(=O)c2ccccc2OC)cc1Br
45.7 | COc1ccc(/C=N/NC(=O)c2ccccc2OC)cc1O
